# Laboratory results: US8952034B2, “Fused heterocyclic compounds as ion channel modulators” (Gilead Sciences, Inc., priority 2009, dated 2015)
# Target: wild-type human cardiac sodium channel, hNav1.5 (Homo sapiens, UniProt Q14524)
# Assay: Late INa screening assay (automated whole cell patch clamp, PatchXpress)
# Assay type: cell-based
# Settings: compound at 1 μM; HEK293 cells expressing hNav1.5; late INa generated with 10 μM Tefluthrin (or 50 nM ATX II); read-out: LateINa_1 uM (percent block of late INa)
# Outline: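 Late sodium current through wild-type human hNav1.5 stably expressed in HEK293 cells (no beta subunits) was recorded by automated whole-cell patch clamp on a PatchXpress 7000A at 24-27° C. Late INa was induced with 10 μM Tefluthrin or 50 nM ATX II. Cells were stepped from −120 mV to −20 mV for 250 ms at 0.1 Hz, and percent block was normalized to current in Na-free extracellular solution.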
# Sequence of wild-type human cardiac sodium channel, hNav1.5 (Q14524 whole entry): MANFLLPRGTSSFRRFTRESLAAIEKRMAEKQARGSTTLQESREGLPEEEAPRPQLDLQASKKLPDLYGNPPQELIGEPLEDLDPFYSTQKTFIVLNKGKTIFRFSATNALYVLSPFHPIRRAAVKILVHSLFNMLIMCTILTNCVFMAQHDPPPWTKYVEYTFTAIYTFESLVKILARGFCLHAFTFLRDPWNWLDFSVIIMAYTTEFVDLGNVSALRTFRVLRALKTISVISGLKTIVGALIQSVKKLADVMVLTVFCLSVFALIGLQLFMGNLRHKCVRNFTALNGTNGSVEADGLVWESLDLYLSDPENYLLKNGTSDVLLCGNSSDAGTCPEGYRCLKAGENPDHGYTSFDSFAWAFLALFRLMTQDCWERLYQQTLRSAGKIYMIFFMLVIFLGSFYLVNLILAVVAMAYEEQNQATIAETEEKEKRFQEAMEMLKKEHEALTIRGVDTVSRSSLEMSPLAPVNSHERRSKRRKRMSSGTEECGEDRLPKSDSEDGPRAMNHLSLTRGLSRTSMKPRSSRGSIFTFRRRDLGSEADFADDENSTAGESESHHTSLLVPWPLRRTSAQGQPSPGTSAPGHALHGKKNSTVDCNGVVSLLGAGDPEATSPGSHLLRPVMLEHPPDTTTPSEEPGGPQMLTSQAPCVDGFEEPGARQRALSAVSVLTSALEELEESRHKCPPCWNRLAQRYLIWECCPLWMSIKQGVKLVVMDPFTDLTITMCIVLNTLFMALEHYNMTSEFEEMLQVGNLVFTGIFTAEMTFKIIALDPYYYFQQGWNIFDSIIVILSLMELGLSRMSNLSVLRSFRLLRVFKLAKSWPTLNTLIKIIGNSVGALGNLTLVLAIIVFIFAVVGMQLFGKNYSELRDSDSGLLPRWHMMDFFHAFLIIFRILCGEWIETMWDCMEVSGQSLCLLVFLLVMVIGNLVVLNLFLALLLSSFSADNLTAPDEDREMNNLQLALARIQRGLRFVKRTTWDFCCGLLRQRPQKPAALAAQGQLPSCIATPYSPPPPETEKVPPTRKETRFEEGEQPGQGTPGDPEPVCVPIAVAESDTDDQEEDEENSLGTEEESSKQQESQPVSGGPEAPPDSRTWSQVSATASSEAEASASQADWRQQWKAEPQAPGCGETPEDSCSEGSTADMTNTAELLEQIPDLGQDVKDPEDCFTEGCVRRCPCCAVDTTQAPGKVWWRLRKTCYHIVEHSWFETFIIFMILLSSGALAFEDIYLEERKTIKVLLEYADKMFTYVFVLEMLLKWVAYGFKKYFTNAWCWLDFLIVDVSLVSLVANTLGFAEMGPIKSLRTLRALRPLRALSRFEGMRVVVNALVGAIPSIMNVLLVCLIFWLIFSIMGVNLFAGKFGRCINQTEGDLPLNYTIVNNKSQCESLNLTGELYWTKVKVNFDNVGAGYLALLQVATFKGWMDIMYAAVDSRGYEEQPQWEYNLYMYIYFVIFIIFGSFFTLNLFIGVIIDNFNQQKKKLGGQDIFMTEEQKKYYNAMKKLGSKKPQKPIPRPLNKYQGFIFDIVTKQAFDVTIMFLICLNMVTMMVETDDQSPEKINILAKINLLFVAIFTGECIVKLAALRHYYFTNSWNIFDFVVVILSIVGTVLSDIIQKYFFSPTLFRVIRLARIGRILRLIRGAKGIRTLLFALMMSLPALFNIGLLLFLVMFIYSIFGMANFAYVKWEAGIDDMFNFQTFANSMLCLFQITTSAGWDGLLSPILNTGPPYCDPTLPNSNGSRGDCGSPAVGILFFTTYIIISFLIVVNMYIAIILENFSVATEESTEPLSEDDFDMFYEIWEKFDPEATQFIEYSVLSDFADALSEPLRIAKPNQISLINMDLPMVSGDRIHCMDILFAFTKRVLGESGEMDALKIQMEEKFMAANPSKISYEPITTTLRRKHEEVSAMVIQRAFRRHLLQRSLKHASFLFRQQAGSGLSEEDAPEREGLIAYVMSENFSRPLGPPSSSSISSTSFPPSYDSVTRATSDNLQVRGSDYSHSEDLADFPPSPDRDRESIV
row,SMILES,inhibition at 1 µM [%]
1,"Cc1cccc(C)c1OCCOC(F)(F)c1nnc2ccc(-c3ccc(OC(F)(F)F)cc3)cn12 [BHN-285, 3-{[2-(2,6-dimethylphenoxy)ethoxy](difluoro)methyl}-6-[4-(trifluoromethoxy)phenyl][1,2,4]triazolo[4,3-a]pyridine]",68
2,"FC(F)(F)c1nnc2ccc(-c3ccc(OC(F)(F)c4cccnc4)cc3)cn12 [BHN-271, 6-{4-[difluoro(pyridin-3-yl)methoxy]phenyl}-3-(trifluoromethyl)[1,2,4]triazolo[4,3-a]pyridine]",19.9
3,"FC(F)(F)Oc1ccc(-c2ccc3nnc(COCC4CC4)n3c2)cc1 [BHN-128, 3-[(cyclopropylmethoxy)methyl]-6-[4-(trifluoromethoxy)phenyl][1,2,4]triazolo[4,3-a]pyridine]",65.6
4,"Nc1cc(-c2ccc3nnc(C(F)(F)F)n3c2)ccc1OC(F)(F)F [BHN-134, 2-(trifluoromethoxy)-5-[3-(trifluoromethyl)[1,2,4]triazolo[4,3-a]pyridin-6-yl]aniline]",27.8
5,"FC(F)(F)c1ncc(-c2ccc3nnc(C(F)(F)F)n3c2)cn1 [BHN-122, 3-(trifluoromethyl)-6-[2-(trifluoromethyl)pyrimidin-5-yl][1,2,4]triazolo[4,3-a]pyridine]",31.8
6,"COCC(F)(F)c1nnc2ccc(-c3ccc(OC(F)(F)F)c(C)c3)cn12 [BHN-188, 3-(1,1-difluoro-2-methoxyethyl)-6-[3-methyl-4-(trifluoromethoxy)phenyl][1,2,4]triazolo[4,3-a]pyridine]",41.3
7,"OCc1nc(C(F)(F)F)n2cc(-c3ccc(OC(F)(F)F)cc3)ccc12 [BHN-125, {6-[4-(trifluoromethoxy)phenyl]-3-(trifluoromethyl)imidazo[1,5-a]pyridin-1-yl}methanol]",33.9
8,"FC(F)(F)c1ccc(C#Cc2ccc3nnc(C(F)(F)F)n3c2)cc1 [BHN-177, 3-(trifluoromethyl)-6-{[4-(trifluoromethyl)phenyl]ethynyl}[1,2,4]triazolo[4,3-a]pyridine]",23.6
9,"FC(F)(F)Oc1ccc(-c2ccc3nnc(C(F)(F)OCc4ccc5nccnc5c4)n3c2)cc1 [BHN-291, 6-[(difluoro{6-[4-(trifluoromethoxy)phenyl][1,2,4]triazolo[4,3-a]pyridin-3-yl}methoxy)methyl]quinoxaline]",47
10,"CCC(O)(CC)C(F)(F)c1nnc2ccc(-c3ccc(OC(F)(F)F)cc3)cn12 [BHN-197, 3-(difluoro{6-[4-(trifluoromethoxy)phenyl][1,2,4]triazolo[4,3-a]pyridin-3-yl}methyl)pentan-3-ol]",25.4
11,"FC(F)(F)Oc1ccc(-c2ccc3nnc(-c4ccccc4)n3c2)cc1 [BHN-21, 3-phenyl-6-[4-(trifluoromethoxy)phenyl][1,2,4]triazolo[4,3-a]pyridine]",65.2
12,"Fc1cc(-c2ccc3nnc(C(F)F)n3n2)ccc1OC(F)(F)F [BHN-253, 3-(difluoromethyl)-6-[3-fluoro-4-(trifluoromethoxy)phenyl][1,2,4]triazolo[4,3-b]pyridazine]",39.4
13,"O=C(NCC(F)(F)c1nnc2ccc(-c3ccc(OC(F)(F)F)cc3)cn12)c1ccccc1 [BHN-243, N-(2,2-difluoro-2-{6-[4-(trifluoromethoxy)phenyl][1,2,4]triazolo[4,3-a]pyridin-3-yl}ethyl)benzamide]",21
14,"COC(F)(F)c1nnc2ccc(-c3ccc(OC(F)(F)F)cc3)cn12 [BHN-140, 3-[difluoro(methoxy)methyl]-6-[4-(trifluoromethoxy)phenyl][1,2,4]triazolo[4,3-a]pyridine]",53.2
15,"Cn1ccc(COC(F)(F)c2nnc3ccc(-c4ccc(OC(F)(F)F)cc4)cn23)n1 [BHN-301, 3-{difluoro[(1-methyl-1H-pyrazol-3-yl)methoxy]methyl}-6-[4-(trifluoromethoxy)phenyl][1,2,4]triazolo[4,3-a]pyridine]",29.9
16,"Fc1ccc(COCc2nnc3ccc(-c4ccc(OC(F)(F)F)cc4)cn23)cc1 [BHN-227, 3-{[(4-fluorobenzyl)oxy]methyl}-6-[4-(trifluoromethoxy)phenyl][1,2,4]triazolo[4,3-a]pyridine]",79.8
17,"FC(F)(F)c1ncc2ccc(-c3nccs3)cn12 [BHN-191, 6-(1,3-thiazol-2-yl)-3-(trifluoromethyl)imidazo[1,5-a]pyridine]",19.8
18,"CC(C)(C#N)c1ccc(-c2ccc3nnc(C(F)(F)F)n3c2)cc1 [BHN-66, 2-methyl-2-{4-[3-(trifluoromethyl)[1,2,4]triazolo[4,3-a]pyridin-6-yl]phenyl}propanenitrile]",33.2
19,"COCCOc1cc(OC(F)(F)F)ccc1-c1ccc2nnc(C(F)(F)F)n2c1 [BHN-178, 6-[2-(2-methoxyethoxy)-4-(trifluoromethoxy)phenyl]-3-(trifluoromethyl)[1,2,4]triazolo[4,3-a]pyridine]",28.5
20,"FC(F)(F)Oc1ccc(-c2ccc3nnc(C(F)(F)OCc4cn(-c5ccccc5)nn4)n3c2)cc1 [BHN-215, 3-{difluoro[(1-phenyl-1H-1,2,3-triazol-4-yl)methoxy]methyl}-6-[4-(trifluoromethoxy)phenyl][1,2,4]triazolo[4,3-a]pyridine]",36.4
21,"FC(F)(F)Oc1ccc(-c2ccc3nnc(C(F)(F)F)n3c2)cc1C(F)(F)F [BHN-189, 6-[4-(trifluoromethoxy)-3-(trifluoromethyl)phenyl]-3-(trifluoromethyl)[1,2,4]triazolo[4,3-a]pyridine]",56.9
22,"FC(F)(F)Oc1ccc(-c2ccc3nnc(C(F)(F)OCc4cccnc4)n3c2)cc1 [BHN-204, 3-[difluoro(pyridin-3-ylmethoxy)methyl]-6-[4-(trifluoromethoxy)phenyl][1,2,4]triazolo[4,3-a]pyridine]",43.9
23,"COC(C)(C)c1ccc(-c2ccc3nnc(C(F)(F)F)n3c2)cc1 [BHN-220, 6-[4-(2-methoxypropan-2-yl)phenyl]-3-(trifluoromethyl)[1,2,4]triazolo[4,3-a]pyridine]",58.5
24,"CN(c1ccccc1)c1ccc(-c2ccc3nnc(C(F)(F)F)n3c2)cc1 [BHN-278, N-methyl-N-phenyl-4-[3-(trifluoromethyl)[1,2,4]triazolo[4,3-a]pyridin-6-yl]aniline]",54.2
25,"Cc1c(-c2ccc(OC(F)(F)F)cc2)ccc2nnnn12 [BHN-269, 5-methyl-6-[4-(trifluoromethoxy)phenyl]tetrazolo[1,5-a]pyridine]",44.7
26,"FC(F)(F)c1ccc(-c2ccc3nnc(C(F)(F)F)n3c2)c(C(F)(F)F)c1 [BHN-199, 6-[2,4-bis(trifluoromethyl)phenyl]-3-(trifluoromethyl)[1,2,4]triazolo[4,3-a]pyridine]",20.6
27,"FC(F)(F)Oc1ccc(-c2ccc3nnc(C(F)(F)OCc4ccc(-n5cccn5)nc4)n3c2)cc1 [BHN-315, 3-(difluoro{[6-(1H-pyrazol-1-yl)pyridin-3-yl]methoxy}methyl)-6-[4-(trifluoromethoxy)phenyl][1,2,4]triazolo[4,3-a]pyridine]",55.9
28,"CC(OC(F)(F)c1nnc2ccc(-c3ccc(OC(F)(F)F)cc3)cn12)c1cnc2ccccc2c1 (stereo not shown) [BHN-282, 3-[1-(difluoro{6-[4-(trifluoromethoxy)phenyl][1,2,4]triazolo[4,3-a]pyridin-3-yl}methoxy)ethyl]quinoline]",62.7
29,"NC(=O)c1nnc2ccc(-c3ccc(OC(F)(F)F)cc3)cn12 [BHN-265, 6-[4-(trifluoromethoxy)phenyl][1,2,4]triazolo[4,3-a]pyridine-3-carboxamide]",15.3
30,"FC(F)(F)Oc1ccc(-c2ccc3nnc(C(F)(F)OCc4ccccc4-c4cccnc4)n3c2)cc1 [BHN-327, 3-(difluoro{[2-(pyridin-3-yl)benzyl]oxy}methyl)-6-[4-(trifluoromethoxy)phenyl][1,2,4]triazolo[4,3-a]pyridine]",54.2

# Same assay, conditions: compound at 10 μM; HEK293 cells expressing hNav1.5; late INa generated with 10 μM Tefluthrin (or 50 nM ATX II); read-out: LateINa_10 uM (percent block of late INa)
row,SMILES,inhibition at 10 µM [%]
1,"FC(F)(F)c1ccc(-c2ccc3nnc(C(F)(F)F)n3c2)cn1 [BHN-91, 3-(trifluoromethyl)-6-[6-(trifluoromethyl)pyridin-3-yl][1,2,4]triazolo[4,3-a]pyridine]",46.7
2,"N#Cc1ccc(-c2nnc3ccc(-c4ccc(OC(F)(F)F)cc4)nn23)cc1 [BHN-42, 4-{6-[4-(trifluoromethoxy)phenyl][1,2,4]triazolo[4,3-b]pyridazin-3-yl}benzonitrile]",43.8
3,"FC(F)(F)Oc1ccc(-c2ccc3nnc(-c4ccccc4)n3c2)cc1 [BHN-21, 3-phenyl-6-[4-(trifluoromethoxy)phenyl][1,2,4]triazolo[4,3-a]pyridine]",86.5
4,"FC(F)(F)c1nnc2ccc(-c3ccc(Oc4cnccn4)cc3)cn12 [BHN-94, 6-[4-(pyrazin-2-yloxy)phenyl]-3-(trifluoromethyl)[1,2,4]triazolo[4,3-a]pyridine]",27.5
5,"CC(C)(C#N)c1ccc(-c2ccc3nnc(C(F)(F)F)n3c2)cc1 [BHN-66, 2-methyl-2-{4-[3-(trifluoromethyl)[1,2,4]triazolo[4,3-a]pyridin-6-yl]phenyl}propanenitrile]",70.7
6,"c1ccc(Oc2cccc(-c3ccc4ncnn4c3)c2)cc1 [BHN-347, 6-(3-phenoxyphenyl)[1,2,4]triazolo[1,5-a]pyridine]",73.6
7,"N#Cc1cccc(-c2nnc3ccc(-c4ccc(F)cc4)nn23)c1 [BHN-51, 3-[6-(4-fluorophenyl)[1,2,4]triazolo[4,3-b]pyridazin-3-yl]benzonitrile]",40.5
8,"CCNc1nnc2ccc(-c3ccc(Oc4ccccc4)cc3)cn12 [BHN-334, N-ethyl-6-(4-phenoxyphenyl)[1,2,4]triazolo[4,3-a]pyridin-3-amine]",40.6
9,"Cn1ncc2cc(-c3ccc4nnc(C(F)(F)F)n4c3)ccc21 [BHN-59, 6-(1-methyl-1H-indazol-5-yl)-3-(trifluoromethyl)[1,2,4]triazolo[4,3-a]pyridine]",39.8
10,"CC(C)(O)c1nnc2ccc(-c3ccc(Oc4ccccc4)cc3)nn12 [BHN-60, 2-[6-(4-phenoxyphenyl)[1,2,4]triazolo[4,3-b]pyridazin-3-yl]propan-2-ol]",48.6
